Measured values as given in ChEMBL document CHEMBL1124023, “Analgesic dipeptide derivatives. 4. Linear and cyclic analogues of the analgesic compounds arginyl-2-[(o-nitrophenyl)sulfenyl]tryptophan and lysyl-2-[(o-nitrophenyl)sulfenyl]tryptophan” (1988).

Columns and labels:
Type in all cases: functional
[1] = tested on: Mus musculus; test: Analgesic activity (5 ug icv) tested after 60min, in mice tail-flick test
[2] = tested on: Mus musculus; test: Analgesic activity (2.5 ug icv) tested after 30min, in mice tail-flick test
[3] = tested on: Mus musculus; test: Analgesic activity (2.5 ug icv) tested after 5min, in mice tail-flick test
[4] = tested on: Mus musculus; test: Analgesic activity (0.5 ug icv) tested after 5 min in mice tail-flick test
[5] = tested on: Mus musculus; test: Analgesic activity (2.5 ug icv) tested after 60min, in mice tail-flick test
[6] = tested on: Mus musculus; test: Analgesic activity (5 ug icv) tested after 5min, in mice tail-flick test
[7] = tested on: Mus musculus; test: Analgesic activity (0.5 ug icv) tested after 30min, in mice tail-flick test
[8] = tested on: Mus musculus; test: Analgesic activity (0.5 ug icv) tested after 60min, in mice tail-flick test
[9] = tested on: Mus musculus; test: Analgesic activity (5 ug icv) tested after 30min, in mice tail-flick test
[10] = tested on: Mus musculus; test: Analgesic activity (0.5 ug icv) tested after 5min, in mice tail-flick test
[11] = tested on: Mus musculus; test: Analgesic activity (25 ug icv) tested after 60min, in mice tail-flick test
[12] = tested on: Mus musculus; test: Analgesic activity (25 ug icv) tested after 30min, in mice tail-flick test
[13] = tested on: Mus musculus; test: Analgesic activity (12.5 ug icv) tested after 30min, in mice tail-flick test
[14] = tested on: Mus musculus; test: Analgesic activity (12.5 ug icv) tested after 60min, in mice tail-flick test
[15] = tested on: Mus musculus; test: Analgesic activity (25 ug icv) tested after 5min, in mice tail-flick test
[16] = tested on: Mus musculus; test: Analgesic activity (12.5 ug icv) tested after 5min, in mice tail-flick test
[17] = tested on: Mus musculus; test: Analgesic activity (6.25 ug icv) tested after 5min, in mice tail-flick test
[18] = tested on: Mus musculus; test: Analgesic activity (3.125 ug icv) tested after 5min, in mice tail-flick test
[19] = tested on: Mus musculus; test: Analgesic activity (3.125 ug icv) tested after 30min, in mice tail-flick test
[20] = tested on: Mus musculus; test: Analgesic activity (6.25 ug icv) tested after 60min, in mice tail-flick test
[21] = tested on: Mus musculus; test: Analgesic activity (1 ug icv) tested after 30min, in mice tail-flick test
[22] = tested on: Mus musculus; test: Analgesic activity (6.25 ug icv) tested after 30min, in mice tail-flick test
[23] = tested on: Mus musculus; test: Analgesic activity (3.125 ug icv) tested after 60min, in mice tail-flick test
[24] = tested on: Mus musculus; test: Analgesic activity (1 ug icv) tested after 5min, in mice tail-flick test
[25] = tested on: Mus musculus; test: Analgesic activity (1 ug icv) tested after 60min, in mice tail-flick test
[26] = tested on: Mus musculus; test: Analgesic activity (0.5 ug icv) tested after 30 min in mice tail-flick test
[27] = tested on: Mus musculus; test: Analgesic activity (0.5 ug icv) tested after 60 min in mice tail-flick test

Structure (SMILES) | Change in reaction time [2] [%] | Change in reaction time [3] [%] | Change in reaction time [5] [%] | Change in reaction time [7] [%] | Change in reaction time [8] [%] | Change in reaction time [10] [%] | other results
COC(=O)[C@@H](CCCN=C(N)N)NC(=O)[C@@H](N)Cc1cn(Sc2ccccc2[N+](=O)[O-])c2ccccc12.Cl | 18 | 20 | 9 | 23 | 9 |  | Change in reaction time [1]: 30%; Change in reaction time [4]: 18%; Change in reaction time [6]: 97%; Change in reaction time [9]: 88%
COC(=O)[C@H](CCCN=C(N)N)NC(=O)[C@H](N)Cc1cn(Sc2ccccc2[N+](=O)[O-])c2ccccc12.Cl | 41 | 125 | 20 | 26 | 23 | 30 | 
NC(N)=NCCC[C@H](NC(=O)[C@@H](N)Cc1ccc(O)cc1)C(=O)O [KYOTORPHIN] |  |  |  |  |  |  | Change in reaction time [11]: 10%; Change in reaction time [12]: 31%; Change in reaction time [13]: 1%; Change in reaction time [14]: 6%; Change in reaction time [15]: 98%; Change in reaction time [16]: 18%
NC(N)=NCCC[C@@H](NC(=O)[C@H](N)Cc1ccc(O)cc1)C(=O)O |  |  |  |  |  |  | Change in reaction time [17]: 102%; Change in reaction time [18]: 79%; Change in reaction time [19]: 34%; Change in reaction time [20]: 10%; Change in reaction time [21]: 5%; Change in reaction time [22]: 68%; Change in reaction time [23]: 15%; Change in reaction time [24]: 10%; Change in reaction time [25]: -2%
Cl.N=C(N)NCCCC1NC(=O)[C@H](Cc2cn(Sc3ccccc3[N+](=O)[O-])c3ccccc23)NC1=O (stereo in doubt) |  |  |  | 23 | 15 | 35 | 
COC(=O)[C@H](CCCCN)NC(=O)[C@@H](N)Cc1cn(Sc2ccccc2[N+](=O)[O-])c2ccccc12 |  |  |  | 76 | 33 | 138 | 
COC(=O)[C@H](CCCN=C(N)N)NC(=O)[C@@H](N)Cc1cn(Sc2ccccc2[N+](=O)[O-])c2ccccc12.Cl |  |  |  |  |  |  | Change in reaction time [4]: 113%; Change in reaction time [26]: 63%; Change in reaction time [27]: 20%
COC(=O)[C@@H](CCCN=C(N)N)NC(=O)[C@H](N)Cc1cn(Sc2ccccc2[N+](=O)[O-])c2ccccc12.Cl | 3 | 16 | -2 | 10 | -2 | 6 | Change in reaction time [1]: 29%; Change in reaction time [6]: 34%; Change in reaction time [9]: 42%
COC(=O)[C@H](Cc1cn(Sc2ccccc2[N+](=O)[O-])c2ccccc12)NC(=O)[C@@H](N)CCCCN |  |  |  | 50 | 20 | 98 | 
COC(=O)[C@H](Cc1cn(Sc2ccccc2[N+](=O)[O-])c2ccccc12)NC(=O)[C@@H](N)CCCN=C(N)N |  |  |  | 52 | 22 | 120 | 
